“Also recorded” adds a separate entry of the source. Where two headings read alike, the source gives them in different places.
How the values were obtained:
[1] = system: human nasal epithelial cells (RPMI2650, ATCC CCL-30); assay: Starvation (serum deprivation) stress, neutral red uptake viability; assay type: cell-based; conditions: for viability at 10000 µg/mL: Homo sapiens, 10 mg/mL, read-out: Percentage of viability
Experimental: (§1) Induced stresses were performed as follow: Starvation
(§2) The neutral red uptake assay was used for the determination of cell viability. This assay is based on the ability of viable cells to incorporate and bind the supravital dye neutral red in its lysosomes. So, only the viable cells are dyed. At different times after the stress assay (T0), the plates were incubated with neutral red solution for 3.5 hours. The cells are subsequently washed, the dye is extracted in each well and the absorbance is read using a spectrophotometer.
(§3) For sampling, 1 mL of DMEM (without phenol red indicator) with neutral red (OD=0.110) was added to the cells for 3.5 hours (37° C., 10% CO2). After incubation, the medium was removed, two washes of PBS were realized and 1 mL of extraction solution (absolute ethanol 49%, ultrapure water 49%, glacial acetic acid 2%) was added. Plates were placed 15 minutes on rotary shaker in the dark before reading OD at 540 nm.
(§4) The OD540 nm average value of positive control was considered as 100% of viability.
(§5) The percentage of viability for each assay was calculated as follow: % viability assay=(OD540 nm of tested solution−blank)*100/(OD540 nm of positive control−blank).

[2] = system: human neonatal skin fibroblasts (CCD-27SK, ATCC CRL-1475); assay: as above; assay type: cell-based; conditions: for viability at 5000 µg/mL: Homo sapiens, CCD-27Sk, read-out: Percentage of viability; for preservative/protective effect on skin fibroblasts (in words): starvation medium
Experimental: as §1, §2, §3, §4, §5

[3] = system: human neonatal skin fibroblasts; assay: Oxidative stress (H2O2), neutral red uptake viability; assay type: cell-based; conditions: for viability at 5000 µg/mL / viability at 10000 µg/mL / viability at 15000 µg/mL: Homo sapiens, Skin fibroblast, read-out: Percentage of viability following oxidative stress; for viability at 5000 µg/mL: 5 mg/mL; for viability at 10000 µg/mL: 10 mg/mL; for viability at 15000 µg/mL: 15 mg/mL
Experimental: as §1
Then oxidative stress was performed as follow: 0.2 ml of solution at 500 μM of H2O2 was added in wells except for negative control where 0.2 ml of culture medium were added.
as §2, §3, §5

[4] = system: human neonatal skin fibroblasts; assay: UV stress (11 J/cm^2), neutral red uptake viability; assay type: cell-based; conditions: for viability at 5000 µg/mL / viability at 10000 µg/mL / viability at 15000 µg/mL: Homo sapiens, Skin fibroblast, light or radiation study, read-out: Percentage of viability following UV stress (11 J/cm^2); for viability at 5000 µg/mL: 5 mg/mL; for viability at 10000 µg/mL: 10 mg/mL; for viability at 15000 µg/mL: 15 mg/mL
Experimental: as §2, §3, §5

[5] = Comparative stability towards basic conditions (NaOD in D2O), 1H NMR; assay type: physicochemical
Experimental: In a first set of experiments (experiments 1 to 7 in table 9), X (10 mg, 1.72 10^−2 mmol) was reacted with 2 to 8 equivalents of NaOD in a total volume of 355 μL of deuterium oxide ([X]=4.8 10^−2 mmol·mL^−1) during 2 h 30 before being acidified with 1M DCl in D2O. To be sure that all compounds in solution are in their acidic form, the equivalents of DCl are adjusted to 3 more equivalents of DCl than the amount required to neutralize the solution (nDCl=nNaOD+3). The volume was adjusted to 544 μL with deuterium oxide.
In a second set of experiments (experiments 8 to 14 in table 9), 17 (10 mg, 1.66 10^−2 mmol) was reacted with 2 to 8 equivalents of NaOD in a total volume of 343 μL of deuterium oxide ([17]=4.8 10^−2 mmol·mL^−1) during 2 h 30 before being acidified with 1M DCl in D2O. To be sure that all compounds in solution are in their acidic form, the equivalents of DCl are adjusted to 3 more equivalents of DCl than the amount required to neutralize the solution (nDCl=nNaOD+3). The volume was adjusted to 526 μL with deuterium oxide.
^1H NMR analyses were performed on each experiment. It is why experiments were realized in deuterium oxide and using 1M NaOD in D2O as base and 1M DCl in D2O as acid.
^1H NMR allows indeed the determination of the amount of compound X1 formed, by comparison between the integration corresponding to the methylene group of the lysine side chain connected to the nitrogen atom in X (CH2NGP) (3.3 ppm) and the integrationof the same methylene group in X1 (CH2Lys hydrolyzed) (3.0 ppm).
To confirm the structure of compounds X1 and X2, resulting from hydrolysis of X, the following experiment was realized, in which X (10 mg, 1.72 10^−2 mmol) was reacted with 8 equivalents of NaOD in a total volume of 355 μL of deuterium oxide ([X]=4.8 10^−2 mmol·mL^−1) during 3 days before being acidified with 1M DCl in D2O. In these conditions, almost the totality of compound X is hydrolyzed, the percentage of hydrolysis of compound X being 85% as determined by ^1H NMR as evidence in table 11.

[6] = D 1 after serum deprivation, 5 mg/mL (Table 2)
[7] = D 7 after serum deprivation, 5 mg/mL (Table 2)
[8] = D 4 after serum deprivation, 5 mg/mL (Table 2)
[9] = D4 after serum deprivation, 10 mg/mL, positive control with 5% FBS (Table 3)
[10] = D8 after serum deprivation, 10 mg/mL, positive control with 5% FBS (Table 3)

Compound: C[C@H](NC(=O)[C@H](C)NC(=O)[C@@H](N)CCCCNCC(F)(F)C1(O)O[C@H](CO)[C@H](O)[C@H](O)[C@H]1O)C(=O)O (stereo partly shown) [Compound 19]
- viability at 10000 µg/mL ([1]; RPMI-2650, D4 after serum deprivation): 52 ± 4.64%
- viability at 10000 µg/mL ([1]; RPMI-2650, D6 after serum deprivation): 26%
- preservative/protective effect on human nasal epithelial cells (in words) ([1]; starvation medium, 10 mg/ml): preservative/protective effect
- Percentage of viability [2, 6]: 73%
- Percentage of viability [2, 7]: 50%
- viability at 5000 µg/mL [2, 6]: 73 to 87%
- viability at 5000 µg/mL [2, 8]: 57%
- viability at 5000 µg/mL [2, 7]: 45 to 50%
- preservative/protective effect on skin fibroblasts (in words) [2]: significant preservative/protective effect
- preservative/protective effect against oxidative stress (in words) ([3]; 5 to 15 mg/ml): preservative/protective effect against oxidative stress which is dose dependant
- viability at 5000 µg/mL ([3]; 1 h after 100 μM H2O2): 89 ± 2.7%
- viability at 10000 µg/mL ([3]; 1 h after 100 μM H2O2): 99 ± 0.5%
- viability at 15000 µg/mL ([3]; 1 h after 100 μM H2O2): 110 ± 2%
- viability at 5000 µg/mL ([3]; 24 h after 100 μM H2O2): 109 ± 2.2%
- viability at 10000 µg/mL ([3]; 24 h after 100 μM H2O2): 120 ± 2.1%
- viability at 15000 µg/mL ([3]; 24 h after 100 μM H2O2): 127 ± 5.8%
- growth/regenerative effect on stressed cells (in words) ([3]; viability increased in time after H2O2): growth/regenerative effect
- preservative/protective effect against UV stress (in words) [4]: preservative/protective effect against UV stress
- viability at 5000 µg/mL ([4]; 1 h after irradiation): 53%
- viability at 10000 µg/mL ([4]; 1 h after irradiation): 70%
- viability at 15000 µg/mL ([4]; 1 h after irradiation): 67%
- viability at 5000 µg/mL ([4]; 3 h after irradiation): 71%
- viability at 10000 µg/mL ([4]; 3 h after irradiation): 80%
- viability at 15000 µg/mL ([4]; 3 h after irradiation): 80%
- viability at 5000 µg/mL ([4]; 24 h after irradiation): 89%
- viability at 10000 µg/mL ([4]; 24 h after irradiation): 116%
- viability at 15000 µg/mL ([4]; 24 h after irradiation): 112%
- growth or regenerative effect on stressed cells (in words) ([4]; viability increased in time after UV): growth or regenerative effect

Compound: CC(=O)O.CC(=O)O.C[C@H](NC(=O)[C@H](C)NC(=O)[C@@H](N)CCCCNCC(F)(F)C1(O)O[C@H](CO)[C@H](O)[C@H](O)[C@H]1O)C(=O)O (stereo partly shown) [Compound 20]
- Percentage of viability [2, 6]: 87%
- Percentage of viability [2, 8]: 63%
- Percentage of viability [2, 7]: 50%
- preservative/protective effect on skin fibroblasts (in words) [2]: significant preservative/protective effect

Compound: C[C@H](NC(=O)[C@@H](N)CCCCNCC(F)(F)C1(O)O[C@H](CO)[C@H](O)[C@H](O)[C@H]1O)C(=O)O.Cl.Cl (stereo partly shown) [Compound 22]
- Percentage of viability ([2]; D4 after serum deprivation, 10 mg/mL (Table 4)): 93%
- preservative/protective effect on skin fibroblasts (in words) [2]: significant preservative/protective effect

Compound: Cl.Cl.N[C@@H](CCCCNCC(F)(F)C1(O)O[C@H](CO)[C@H](O)[C@H](O)[C@H]1O)C(=O)NCC(=O)NCC(=O)O (stereo partly shown) [Compound 24]
- Percentage of viability [2, 9]: 99 ± 3.35%
- Percentage of viability [2, 10]: 95 ± 1.60%
- preservative/protective effect on skin fibroblasts (in words) [2]: significant preservative/protective effect

Compound: C[C@H](NC(=O)[C@@H](N)CCCCNCC(F)(F)C1(O)O[C@H](CO)[C@H](O)[C@H](O)[C@H]1O)C(=O)NCC(=O)O.Cl.Cl (stereo partly shown) [Compound 26]
- Percentage of viability [2, 9]: 89 ± 1.21%
- Percentage of viability [2, 10]: 64 ± 2.78%
- preservative/protective effect on skin fibroblasts (in words) [2]: significant preservative/protective effect

Compound: C[C@H](NC(=O)CNC(=O)[C@@H](N)CCCCNCC(F)(F)C1(O)O[C@H](CO)[C@H](O)[C@H](O)[C@H]1O)C(=O)O.Cl.Cl (stereo partly shown) [Compound 28]
- Percentage of viability [2, 9]: 109 ± 2.05%
- Percentage of viability [2, 10]: 108 ± 3.40%
- preservative/protective effect on skin fibroblasts (in words) [2]: significant preservative/protective effect

Compound: C[C@H](NC(=O)[C@H](C)NC(=O)[C@@H](N)CCCNCC(F)(F)C1(O)O[C@H](CO)[C@H](O)[C@H](O)[C@H]1O)C(=O)O.Cl.Cl (stereo partly shown) [Compound 30]
- Percentage of viability [2, 9]: 92 ± 1.2%
- Percentage of viability [2, 10]: 74 ± 0.5%
- preservative/protective effect on skin fibroblasts (in words) [2]: significant preservative/protective effect

Compound: C[C@H](NC(=O)[C@@H](N)CCCCNCC(F)(F)C1(O)O[C@H](CO)[C@H](O)[C@H](O)[C@H]1O)C(=O)N1CCC[C@H]1C(=O)O.Cl.Cl (stereo partly shown) [Compound 34]
- Percentage of viability [2, 9]: 103 ± 1%
- Percentage of viability [2, 10]: 103 ± 2%
- preservative/protective effect on skin fibroblasts (in words) [2]: significant preservative/protective effect

Compound: C[C@H](N)C(=O)N[C@@H](CCCCNCC(F)(F)C1(O)O[C@H](CO)[C@H](O)[C@H](O)[C@H]1O)C(=O)N[C@@H](C)C(=O)O.Cl.Cl (stereo partly shown) [Compound 38]
- Percentage of viability [2, 9]: 101 ± 3%
- Percentage of viability [2, 10]: 88 ± 3%
- preservative/protective effect on skin fibroblasts (in words) [2]: significant preservative/protective effect

Compound: Cl.Cl.N[C@@H](CCCCNCC(F)(F)C1(O)O[C@H](CO)[C@H](O)[C@H](O)[C@H]1O)C(=O)O (stereo partly shown) [Compound 44]
- Percentage of viability [2, 9]: 111 ± 2.9%
- Percentage of viability [2, 10]: 102 ± 1.3%
- preservative/protective effect on skin fibroblasts (in words) [2]: significant preservative/protective effect

Compound: C[C@H](NC(=O)[C@H](C)NC(=O)[C@@H](N)CCCCNC(=O)C(F)(F)[C@]1(O)O[C@H](CO)[C@H](O)[C@H](O)[C@H]1O)C(=O)O [Compound X]
- % hydrolyzed ([5]; 2 eq NaOD, 2 h 30, D2O): 2.0%
- stability towards basic conditions (in words) ([5]; 2 to 8 eq NaOD, 2 h 30, 1H NMR): degradation; also recorded: sensitive to basic medium
- % hydrolyzed ([5]; 3 eq NaOD, 2 h 30, D2O): 4.8%
- % hydrolyzed ([5]; 4 eq NaOD, 2 h 30, D2O): 13.0%
- % hydrolyzed ([5]; 5 eq NaOD, 2 h 30, D2O): 16.0%
- % hydrolyzed ([5]; 6 eq NaOD, 2 h 30, D2O): 19.0%
- % hydrolyzed ([5]; 7 eq NaOD, 2 h 30, D2O): 20.6%
- % hydrolyzed ([5]; 8 eq NaOD, 2 h 30, D2O): 22.2%
- % hydrolyzed ([5]; 8 eq NaOD, 2 h 30, D2O, listed as compound X): 22%
- % hydrolyzed ([5]; Control, 0 eq NaOD): 0.5%
- % hydrolysis ([5]; Experiment A, 0 eq NaOD (Table 11)): 0.5%
- % hydrolysis ([5]; Experiment B, 8 eq NaOD, 3 days, D2O): 85%

From patent US10100088B2, “Glycopeptide derivatives for the preservation and protection of biological materials and microorganisms” (TFCHEM, priority 2014, dated 2018)
